Measurements as given in US10246444B2, “1,2-dithiolane and dithiol compounds useful in treating mutant EGFR-mediated diseases and conditions” (Sabila Biosciences LLC, priority 2017, dated 2019).

Assays:
[1] = molecular target: EGFR S752-I759del (Homo sapiens (Human), UniProt P00533, DEL752-759); assay: KINOMEscan competition binding assay (Kd); conditions: KINOMEscan binding constant; read-out: Kd Activity Level (EGFR S752-I759del)
Description: (§3) The assay is performed by combining three components: DNA-tagged kinase; immobilized ligand; and a test compound. The ability of the test compound to compete with the immobilized ligand is measured via quantitative PCR of the DNA tag.
(§4) For most assays, kinase-tagged T7 phage strains were prepared in an E. coli host derived from the BL21 strain. E. coli were grown to log-phase and infected with T7 phage and incubated with shaking at 32° C. until lysis. The lysates were centrifuged and filtered to remove cell debris. The remaining kinases were produced in HEK-293 cells and subsequently tagged with DNA for qPCR detection. Streptavidin-coated magnetic beads were treated with biotinylated small molecule ligands for 30 minutes at room temperature to generate affinity resins for kinase assays. The liganded beads were blocked with excess biotin and washed with blocking buffer (SeaBlock (Pierce), 1% BSA, 0.05% Tween 20, 1 mM DTT) to remove unbound ligand and to reduce nonspecific binding. […] All reactions were performed in polystyrene 96-well plates in a final volume of 0.135 ml. […] The kinase concentration in the eluates was measured by qPCR.

[2] = molecular target: various mutant EGF receptors (Homo sapiens, UniProt P00533, DEL747-752/P753S); assay: KINOMEscan competition binding assay (Kd), Example 40 in various mutant EGF receptors (Table 17)
Description: as §3, §4

[3] = molecular target: various mutant EGF receptors (Homo sapiens, UniProt P00533, A750P/DEL747-749); assay: as above
Description: as §3, §4

[4] = molecular target: various mutant EGF receptors (Homo sapiens, UniProt P00533, G719S); assay: as above
Description: as §3, §4

[5] = molecular target: various mutant EGF receptors (Homo sapiens, UniProt P00533, DEL747-751/INS746S); assay: as above
Description: as §3, §4

[6] = molecular target: various mutant EGF receptors (Homo sapiens, UniProt P00533, G719C); assay: as above
Description: as §3, §4

[7] = molecular target: various mutant EGF receptors (Homo sapiens, UniProt P00533, L861Q); assay: as above
Description: as §3, §4

[8] = molecular target: HER2 (Homo sapiens (Human), UniProt P04626); assay: KinaseSeeker rabbit reticulocyte lysate competition binding assay (IC50)
Description: (§5) Luminescence readout translates into a highly sensitive and robust assay with low background and minimal interference from test compounds.
(§6) 10 mM stock solutions of test compounds were serially diluted in DMSO to make assay stocks. Prior to initiating IC50 determinations, the test compounds were evaluated for false positive against split-luciferase.
(§7) For kinase assays, Cfluc-kinase was translated along with Fos-Nfluc using a cell-free system (rabbit reticulocyte lysate) at 30° C. for 90 min. 24 uL aliquot of this lysate containing either 1 uL of DMSO (for no-inhibitor control) or compound solution in DMSO was incubated for 30 minutes at room temperature followed by 1 hour in presence of a kinase specific probe. 80 uL of luciferin assay reagent was added to each solution and luminescence was immediately measured on a luminometer.
(§8) The % Activity was plotted against compound concentration and the IC50 was determined for each compound using a 7-point curve (Jester, B. W.; et. al. J. Am. Chem. Soc. 2010, 132, 11727-11735. Jester, B. W.; et. al. J. Med. Chem. 2012, 55, 1526-1537).

[9] = molecular target: EGFR WT (Homo sapiens (Human), UniProt P00533); assay: as above
Description: as §5, §6, §7, §8

[10] = molecular target: EGFR E746-A750del (Homo sapiens (Human), UniProt P00533, DEL746-750); assay: KINOMEscan competition binding assay (Kd); conditions: KINOMEscan binding constant; read-out: Kd Activity Level (EGFR E746-A750del)
Description: as §3, §4

[11] = molecular target: EGFR (L858R) (Homo sapiens (Human), UniProt P00533, L858R); assay: KinaseSeeker rabbit reticulocyte lysate competition binding assay (IC50)
Description: as §5, §6, §7, §8

[12] = molecular target: kinase (Homo sapiens, UniProt Q15303); assay: Radioisotope filter binding assay (33P-ATP kinase activity, IC50); type: biochemical; conditions: HER 4, read-out: IC50 Activity level HER 4
Description: (§1) Radioisotope Filter Binding Assay: In this assay format, it directly detects the true product without the use of modified substrates or coupling enzymes (Uitdehaag, J. C. et al. Br. J. Pharmacol. 2012, 166, 858-876; Hastie, C. J. et al. Nat. Protoc. 2006, 1, 968-971) according to equation 1.
(§2) The protocol calls for test compound of the invention to be incubated with kinase, substrate, cofactors, and radio-isotope-labeled ATP (^33P-gamma-ATP). The reaction mixtures are then spotted onto filter papers which bind the radioisotope labeled catalytic product. Unreacted phosphate is removed via washing. The reagents used include base reaction buffer; 20 mM Hepes (pH 7.5), 10 mM MgCl2, 1 mM EGTA, 0.02% Brij35, 0.02 mg/ml BSA, 0.1 mM Na3VO4, 2 mM DTT, 1% DMSO. The reaction procedure include the following steps: (1) prepare indicated substrate in freshly prepared base reaction buffer, (2) deliver any required cofactors to the substrate solution above, (3) deliver indicated kinase into the substrate solution and gently mix, (4) deliver compounds in DMSO into the kinase reaction mixture by Acoustic technology (Echo550; nanoliter range), incubate for 20 minutes at room temperature, (5) deliver ^33P-ATP (specific activity 10 μCi/μL) into the reaction mixture to initiate the reaction, (6) incubate kinase reaction for 2 hours at room temperature, (7) reactions are spotted onto P81 ion exchange paper, (8) detect kinase activity by filter-binding method.

[13] = molecular target: kinase (Homo sapiens, UniProt P00533, L858R); assay: as above; type: biochemical; conditions: EGFR L858R, read-out: IC50 Activity level EGFR L858R
Description: as §1, §2

[14] = molecular target: kinase (Homo sapiens, UniProt P00533, DEL746-750); assay: as above; type: biochemical; conditions: EGFR E746-A750del, read-out: IC50 Activity level EGFR E746-A750del
Description: as §1, §2

[15] = molecular target: kinase (Homo sapiens, UniProt P00533); assay: as above; type: biochemical; conditions: EGFR WT, read-out: IC50 Activity level EGFR WT
Description: as §1, §2

[16] = molecular target: kinase; assay: as above; type: biochemical; conditions: HER 2, read-out: IC50 Activity level HER 2
Description: as §1, §2

kinase (Homo sapiens, UniProt P00533, DEL746-750), sequence (P00533 with tags, fused parts or gaps DEL746-750 limits assumed): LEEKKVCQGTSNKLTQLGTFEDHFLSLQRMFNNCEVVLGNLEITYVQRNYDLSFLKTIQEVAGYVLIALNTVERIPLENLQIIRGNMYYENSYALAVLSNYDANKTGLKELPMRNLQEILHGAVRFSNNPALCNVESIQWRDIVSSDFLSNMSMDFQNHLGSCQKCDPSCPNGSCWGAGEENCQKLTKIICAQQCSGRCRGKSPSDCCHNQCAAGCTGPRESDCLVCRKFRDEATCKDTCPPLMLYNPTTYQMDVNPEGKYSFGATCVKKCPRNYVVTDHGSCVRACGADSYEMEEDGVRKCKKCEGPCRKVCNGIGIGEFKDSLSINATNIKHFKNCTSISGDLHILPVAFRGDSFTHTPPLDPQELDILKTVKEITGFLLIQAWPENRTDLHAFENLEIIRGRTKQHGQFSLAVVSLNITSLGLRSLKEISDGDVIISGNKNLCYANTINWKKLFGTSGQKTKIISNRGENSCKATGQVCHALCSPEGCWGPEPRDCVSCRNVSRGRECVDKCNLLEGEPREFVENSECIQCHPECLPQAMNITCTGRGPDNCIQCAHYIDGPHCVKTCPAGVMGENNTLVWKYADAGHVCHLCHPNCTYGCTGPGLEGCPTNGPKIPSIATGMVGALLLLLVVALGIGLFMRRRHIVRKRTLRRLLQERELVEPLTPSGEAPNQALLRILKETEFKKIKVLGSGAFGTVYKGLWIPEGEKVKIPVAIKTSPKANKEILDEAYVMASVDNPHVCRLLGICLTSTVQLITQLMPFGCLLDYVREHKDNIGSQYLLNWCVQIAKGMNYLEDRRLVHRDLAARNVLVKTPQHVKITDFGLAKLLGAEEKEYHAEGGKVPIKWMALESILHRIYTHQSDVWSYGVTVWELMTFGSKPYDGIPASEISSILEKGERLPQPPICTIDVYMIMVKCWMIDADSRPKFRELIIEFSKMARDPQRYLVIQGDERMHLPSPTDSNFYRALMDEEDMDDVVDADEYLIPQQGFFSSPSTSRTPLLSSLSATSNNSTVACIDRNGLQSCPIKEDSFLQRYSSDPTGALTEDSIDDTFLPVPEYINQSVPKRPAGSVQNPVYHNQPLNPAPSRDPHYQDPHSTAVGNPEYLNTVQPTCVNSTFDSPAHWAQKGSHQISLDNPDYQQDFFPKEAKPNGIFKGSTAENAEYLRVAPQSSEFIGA
EGFR WT, sequence (P00533 25-1210): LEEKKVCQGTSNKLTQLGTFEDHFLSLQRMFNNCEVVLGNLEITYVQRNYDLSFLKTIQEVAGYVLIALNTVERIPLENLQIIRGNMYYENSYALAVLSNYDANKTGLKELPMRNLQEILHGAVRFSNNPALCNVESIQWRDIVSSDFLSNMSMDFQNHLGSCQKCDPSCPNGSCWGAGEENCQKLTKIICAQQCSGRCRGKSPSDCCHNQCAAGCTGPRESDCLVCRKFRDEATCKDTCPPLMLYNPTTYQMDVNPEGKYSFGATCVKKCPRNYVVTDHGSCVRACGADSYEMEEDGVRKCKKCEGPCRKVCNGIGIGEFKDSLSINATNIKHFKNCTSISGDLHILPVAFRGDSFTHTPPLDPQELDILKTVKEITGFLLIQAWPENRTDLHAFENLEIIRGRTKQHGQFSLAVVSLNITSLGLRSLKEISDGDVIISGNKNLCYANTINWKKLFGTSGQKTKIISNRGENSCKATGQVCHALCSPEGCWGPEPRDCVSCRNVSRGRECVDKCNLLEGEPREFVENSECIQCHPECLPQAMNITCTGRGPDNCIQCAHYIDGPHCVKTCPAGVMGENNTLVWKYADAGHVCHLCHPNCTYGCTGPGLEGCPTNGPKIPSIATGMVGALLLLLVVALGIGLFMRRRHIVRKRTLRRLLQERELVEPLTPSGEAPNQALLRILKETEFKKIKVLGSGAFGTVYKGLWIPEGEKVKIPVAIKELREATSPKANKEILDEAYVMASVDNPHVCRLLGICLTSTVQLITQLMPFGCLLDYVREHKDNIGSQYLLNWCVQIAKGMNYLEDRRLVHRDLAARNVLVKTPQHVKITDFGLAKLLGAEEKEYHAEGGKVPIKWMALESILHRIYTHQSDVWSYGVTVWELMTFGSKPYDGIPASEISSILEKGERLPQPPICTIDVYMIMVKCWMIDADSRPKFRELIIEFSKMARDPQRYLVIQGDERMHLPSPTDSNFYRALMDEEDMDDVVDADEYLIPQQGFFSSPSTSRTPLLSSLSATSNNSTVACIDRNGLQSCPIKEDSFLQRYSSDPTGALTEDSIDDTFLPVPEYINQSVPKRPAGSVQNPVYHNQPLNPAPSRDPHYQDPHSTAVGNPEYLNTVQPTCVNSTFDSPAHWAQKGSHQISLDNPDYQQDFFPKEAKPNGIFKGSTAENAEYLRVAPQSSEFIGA
kinase (Homo sapiens, UniProt P00533), sequence (P00533 25-1210 limits assumed): as the sequence (P00533 25-1210) above
kinase (Homo sapiens, UniProt Q15303), sequence (Q15303 26-1308 limits assumed): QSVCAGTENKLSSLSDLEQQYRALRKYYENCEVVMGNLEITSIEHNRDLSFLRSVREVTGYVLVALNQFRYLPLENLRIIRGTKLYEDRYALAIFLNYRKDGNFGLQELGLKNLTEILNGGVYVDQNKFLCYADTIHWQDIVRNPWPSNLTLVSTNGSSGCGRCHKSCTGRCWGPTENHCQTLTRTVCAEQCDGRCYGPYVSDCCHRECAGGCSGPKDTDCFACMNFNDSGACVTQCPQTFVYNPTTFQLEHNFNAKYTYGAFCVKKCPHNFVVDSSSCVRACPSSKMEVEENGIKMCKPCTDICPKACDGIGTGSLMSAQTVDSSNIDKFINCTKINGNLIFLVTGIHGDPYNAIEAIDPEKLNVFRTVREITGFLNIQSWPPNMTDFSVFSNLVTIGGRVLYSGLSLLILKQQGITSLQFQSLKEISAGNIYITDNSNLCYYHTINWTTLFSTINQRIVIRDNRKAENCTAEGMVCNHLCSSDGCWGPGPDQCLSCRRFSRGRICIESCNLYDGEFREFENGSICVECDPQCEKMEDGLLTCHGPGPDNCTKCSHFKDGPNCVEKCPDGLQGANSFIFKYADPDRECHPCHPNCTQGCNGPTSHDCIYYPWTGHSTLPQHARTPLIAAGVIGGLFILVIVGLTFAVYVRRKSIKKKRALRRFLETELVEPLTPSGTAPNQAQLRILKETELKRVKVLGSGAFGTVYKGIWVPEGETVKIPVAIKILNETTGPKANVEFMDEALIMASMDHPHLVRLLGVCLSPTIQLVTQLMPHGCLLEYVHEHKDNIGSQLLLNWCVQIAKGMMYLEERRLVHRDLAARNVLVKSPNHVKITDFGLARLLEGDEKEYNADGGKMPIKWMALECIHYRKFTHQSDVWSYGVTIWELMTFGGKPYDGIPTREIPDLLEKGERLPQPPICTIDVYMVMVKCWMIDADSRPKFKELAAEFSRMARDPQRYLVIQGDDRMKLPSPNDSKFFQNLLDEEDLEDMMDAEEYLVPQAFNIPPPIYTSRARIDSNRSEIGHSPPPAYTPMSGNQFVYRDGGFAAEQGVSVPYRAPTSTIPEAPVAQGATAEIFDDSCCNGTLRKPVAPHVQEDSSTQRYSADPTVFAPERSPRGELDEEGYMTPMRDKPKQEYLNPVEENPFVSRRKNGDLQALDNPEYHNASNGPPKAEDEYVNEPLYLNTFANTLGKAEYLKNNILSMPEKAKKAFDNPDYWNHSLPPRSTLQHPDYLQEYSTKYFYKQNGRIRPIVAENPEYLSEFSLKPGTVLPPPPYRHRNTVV

Row | SMILES | Kd [1] [nM] | Kd [2] [nM] | Kd [3] [nM] | Kd [4] [nM] | Kd [5] [nM] | Kd [6] [nM] | Kd [7] [nM] | IC50 [8] [nM] | IC50 [9] [nM] | Kd [10] [nM] | IC50 [11] [nM] | IC50 [12] [nM] | IC50 [13] [nM] | IC50 [14] [nM] | IC50 [15] [nM] | IC50 [16] [nM]
1 | CCOc1cc2ncc(C#N)c(Nc3ccc(OCc4cccc(F)c4)c(Cl)c3)c2cc1NC(=O)CC1CCSS1 (stereo not shown) [Example 40] | 1 to 99 | 1 to 99 | 1 to 99 | 1 to 99 | 1 to 99 | 1 to 99 | 1 to 99 | 100 to 999 | 100 to 999 | 1 to 99 | 1 to 99 | – | – | – | – | –
2 | N#Cc1cnc2ccc(NC(=O)C3CSSC3)cc2c1Nc1ccc(OCc2cccc(F)c2)c(Cl)c1 [Example 61, N-(4-((3-Chloro-4-((3-fluorobenzyl)oxy)phenyl)amino)-3-cyanoquinolin-6-yl)-1,2-dithiolane-4-carboxamide] | – | – | – | – | – | – | – | – | – | – | – | 100 to 999 | – | – | – | –
3 | N#Cc1cnc2ccc(NC(=O)CC3CCSS3)cc2c1Nc1ccc(OCc2cccc(F)c2)c(Cl)c1 (stereo not shown) [Example 62, N-(4-((3-Chloro-4-((3-fluorobenzyl)oxy)phenyl)amino)-3-cyanoquinolin-6-yl)-2-(1,2-dithiolan-3-yl)acetamide] | – | – | – | – | – | – | – | – | 100 to 999 | – | 1 to 99 | 1 to 99 | – | – | – | –
4 | N#Cc1cnc2cc(OC[C@H](O)CO)c(NC(=O)CC3CSSC3)cc2c1Nc1ccc(OCc2cccc(F)c2)c(Cl)c1 [Example 90, (R)—N-(4-((3-Chloro-4-((3-fluorobenzyl)oxy)phenyl)amino)-3-cyano-7-(2,3-dihydroxypropoxy)quinolin-6-yl)-2-(1,2-dithiolan-4-yl)acetamide] | – | – | – | – | – | – | – | – | 100 to 999 | – | 1 to 99 | 1 to 99 | 100 to 999 | 1000 to 10000 | 1 to 99 | –
5 | N#Cc1cnc2cc(OC[C@@H](O)CO)c(NC(=O)CC3CSSC3)cc2c1Nc1ccc(OCc2cccc(F)c2)c(Cl)c1 [Example 92, (S)—N-(4-((3-Chloro-4-((3-fluorobenzyl)oxy)phenyl)amino)-3-cyano-7-(2,3-dihydroxypropoxy)quinolin-6-yl)-2-(1,2-dithiolan-4-yl)acetamide] | 1 to 99 | – | – | – | – | – | – | 100 to 999 | 100 to 999 | 1 to 99 | 1 to 99 | 1 to 99 | 100 to 999 | 1000 to 10000 | 1 to 99 | 100 to 999
6 | N#Cc1cnc2cc(OC[C@H](O)CO)c(NC(=O)C3CSSC3)cc2c1Nc1ccc(OCc2cccc(F)c2)c(Cl)c1 [Example 95, (R)—N-(4-((3-Chloro-4-((3-fluorobenzyl)oxy)phenyl)amino)-3-cyano-7-(2,3-dihydroxypropoxy)quinolin-6-yl)-1,2-dithiolane-4-carboxamide] | – | – | – | – | – | – | – | – | 100 to 999 | – | 1 to 99 | – | 100 to 999 | 1000 to 10000 | 1 to 99 | –
7 | N#Cc1cnc2cc(OC[C@@H](O)CO)c(NC(=O)C3CSSC3)cc2c1Nc1ccc(OCc2cccc(F)c2)c(Cl)c1 [Example 98, (S)—N-(4-((3-Chloro-4-((3-fluorobenzyl)oxy)phenyl)amino)-3-cyano-7-(2,3dihydroxypropoxy)quinolin-6-yl)-1,2-dithiolane-4-carboxamide] | – | – | – | – | – | – | – | – | 100 to 999 | – | 1 to 99 | 1 to 99 | 1 to 99 | 100 to 999 | 1 to 99 | 100 to 999
